The values below are quoted from earlier work in patent publication US20050244368A1, “Pre-endoscopic use of polyethylene glycol compositions” (priority 2004, published 2005).

The conditions of this data set: % of adult patients (Zwas et al., 1996).

With `O=P(O)(O)O` [sodium phosphate], the “colonic mucosal changes mimicking inflammatory bowel disease” value is reported as “up to 24%”.
